In patent US8338624B2, “Isoflavone derivatives and uses thereof” (Yeda Research and Development Co., Ltd., priority 2007, dated 2012):
Residues, ends and D or L forms follow the SMILES beside them. *: point of attachment. Cbz = O=C(OCc1ccccc1)*; CH2F = FC*

Assays:
[1] = test system: human prostate C4-2B cancer cells; assay: DNA synthesis by [3H]-thymidine incorporation, C4-2B cells; format: cell-based
Protocol: (§1) Cells were cultured in MEM supplemented with 10% FCS and antibiotics. Cells were grown to subconfluence and then treated with various hormones or agents as described by Somjen et al. (Somjen et al., 1998). The cells were characterized in terms of expression of mRNAs for estrogen […] by real time PCR, and the results are summarized in Table 1. N87, 320DM and H295R cells expressed mRNAs for both ERs. The ratio of ERα to ERβ was 1:8.5, 1:30 and 1:1.8 in N87, 320DM and H295R cells, respectively. Ovarian A2780 and prostate C4-24 cells expressed mainly mRNA for ERβ, and the ratio of ERβ to ERα was 300:1 and 70:1, respectively. MLS ovarian cells expressed mRNA only for ERβ. The ratio of ERα to ERβ in T47D cells has been reported to be 9:1.
(§2) [^3H]-Thymidine incorporation into DNA was used for the assessment of the various effects (proliferative or inhibitory) of various isoflavones, isoflavone derivatives and known cytotoxic drugs in the above-mentioned cells. Cells were grown until subconfluence using conditions described in Somjen et al. (Somjen et al., 1998) and then treated with various agents for 24 or 48 h as indicated. At the end of incubation, [^3H]-thymidine was added for two hours. Cells were then treated with 10% ice-cold trichloroacetic (TCA) for 5 min and washed twice with 5% TCA and then with cold ethanol. The cellular layer was dissolved in 0.3 ml of 0.3 M NaOH, aliquots were taken for counting radioactivity, and [^3H]-thymidine incorporation into DNA was calculated.

[2] = test system: 320DM human colon cancer cells; assay: DNA synthesis by [3H]-thymidine incorporation, 320DM cells; format: cell-based; conditions: for effect on DNA synthesis / growth: 30 to 3000 nM
Protocol: as §1
as §2, with “(Somjen et al., 1998) and then treated with various agents for 24 or 48 h as indicated.” left out

[3] = test system: Human umbilical vascular smooth muscle cells (VSMC); assay: DNA synthesis by [3H]-thymidine incorporation, normal VSMC; format: cell-based; conditions: for effect on DNA synthesis: at 300 nM
Protocol: Human umbilical vascular smooth muscle cells (VSMC) sensitive to estrogen, were grown in culture as described above, and used only at passages 1-3, when expression of smooth muscle actin was clearly demonstrable (Somjen et al. 2000). The ratio of the expression of mRNA for ERα to ERβ was 2.7:1.
as §2

[4] = test system: A2780 ovarian cancer cells; assay: DNA synthesis by [3H]-thymidine incorporation, A2780 cells; format: cell-based, human; conditions: for inhibition at 25 µM: read-out: inhibition of cell proliferation
Protocol: as §1, §2

MLS ovarian cancer cells = assay: DNA synthesis by [3H]-thymidine incorporation, MLS cells; format: cell-based, human
Protocol: as §1, §2

[5] = test system: H295R adrenocarcinoma cells; assay: DNA synthesis by [3H]-thymidine incorporation, H295R cells; format: cell-based, human; design: stimulation of DNA synthesis: concentration or dose not given beside the values; conditions: for inhibition at 3 µM: Homo sapiens, NCI-H295R, read-out: inhibition of DNA synthesis / growth
Protocol: as §1, §2

[6] = test system: N87 gastric carcinoma cells; assay: DNA synthesis by [3H]-thymidine incorporation, N87 cells; format: cell-based, human
Protocol: as §1, §2

[7] = test system: T47D mammary cancer cells; assay: DNA synthesis by [3H]-thymidine incorporation, T47D cells; format: cell-based, human; conditions: at 10 μM
Protocol: as §1, §2

ERβ compared to ERα = conditions: transfected cells; cited from earlier work
MLS ovarian xenografts = MLS ovarian xenografts in nude mice; format: in vivo; conditions: daunomycin iv 200 μg/mouse every other day
Source text: Female CD1 nude mice (8-week old, ˜30 g) were housed and handled with free access to food and water in the animal facility according to the guidelines (1996) of the Institutional Animal Care and Use Committee of the Weizmann Institute of Science, Rehovot, Israel.
Thirty female nude mice (8 weeks old) were inoculated sub-cutaneously (sc) with MLS ovarian carcinoma cells (1.5×10^6/mouse). Ten days later, when the tumors were palpable, the mice were randomly divided into 3 groups (8-10 mice/group). The mice in each group were iv injected every other day either with a vehicle (Neowater, a solubilization enhancer, 0.1 ml), daunomycin dissolved in Neowater (200 μg/mouse in 0.1 ml vehicle, total dose during treatment 1 mg/mouse), or compound 9 dissolved in Neowater (400 μg/mouse in 0.1 ml vehicle, total dose during treatment 2 mg/mouse). During treatment, body weight was recorded to monitor toxicity of the treatment, and the tumors were measured with an external caliper. Tumor volume was calculated using the formula length×width×height×π/6. Statistical significance was assessed using student's t test, and differences were considered significant at p<0.05.

[8] = ICI 182780 (1.1 μM) + E2 0.3 μM
[9] = estradiol 30 nM + 1.1 μM ICI 182780
[10] = apoptosis inhibitor at 25 μM alone

## C[C@]12CC[C@@H]3c4ccc(O)cc4CC[C@H]3[C@@H]1CC[C@@H]2O [Compound E2, estradiol 17β, reference compound]
[1]; E2 at 30 nM
  DNA synthesis, ratio experimental/control (E/C): 2.10 ± 0.10
[2]; E2 30 nM alone (Table 3)
  DNA synthesis, ratio experimental/control (E/C): 2.06 ± 0.09
[2]; E2 0.3 μM alone
  DNA synthesis, ratio experimental/control (E/C): 1.87 ± 0.18
[2]; E2 at 30 nM (Table 2)
  DNA synthesis, ratio experimental/control (E/C): 1.64 ± 0.13
[2]; Homo sapiens, estradiol 30 nM, read-out: [3H]-thymidine incorporation (% of control)
  activity at 0.03 µM: 206%
[3]; E2 at 30 nM
  DNA synthesis, ratio experimental/control (E/C): 0.55 ± 0.12
[4]; E2 at 30 nM
  DNA synthesis, ratio experimental/control (E/C): 1.42 ± 0.10
MLS ovarian cancer cells; E2 30 nM alone (Table 3)
  DNA synthesis, ratio experimental/control (E/C): 2.35 ± 0.06
MLS ovarian cancer cells; E2 0.3 μM alone
  DNA synthesis, ratio experimental/control (E/C): 1.70 ± 0.15
MLS ovarian cancer cells; E2 at 30 nM (Table 2)
  DNA synthesis, ratio experimental/control (E/C): 1.39 ± 0.03
MLS ovarian cancer cells; Homo sapiens, estradiol 30 nM, read-out: DNA synthesis (% of control)
  activity at 0.03 µM: 235%
MLS ovarian cancer cells; Homo sapiens, estradiol 0.3 μM, read-out: DNA synthesis (% of control)
  activity at 0.3 µM: 187%
[5]; E2 at 30 nM
  DNA synthesis, ratio experimental/control (E/C): 2.10 + .10

## COc1ccc(-c2coc3cc(O)cc(O)c3c2=O)cc1 [Compound 1, Biochanin A, reference compound]
[1]; at 3 μM
  effect on DNA synthesis: stimulated DNA synthesis significantly
[6]; at 3 μM
  effect on DNA synthesis: had no effect
[2]
  effect on DNA synthesis / growth: had no effect on growth
[3]
  effect on DNA synthesis: stimulated DNA synthesis
[5]; at 3 μM
  effect on DNA synthesis: had no effect on DNA synthesis
[7]
  effect on DNA synthesis: stimulated DNA synthesis

## O=c1c(-c2ccc(O)cc2)coc2cc(O)ccc12 [Compound 3, Daidzein, reference compound]
[1]; at 3 μM
  effect on DNA synthesis: stimulated DNA synthesis significantly
[3]
  effect on DNA synthesis: stimulated DNA synthesis
[4]; Homo sapiens
  inhibition at 25 µM: 30 to 40%
ERβ compared to ERα
  sensitivity for activating transcription via ERβ compared to ERα: 100 fold
[7]
  effect on DNA synthesis: stimulated DNA synthesis

## COc1ccc(-c2c(CCCC(=O)O)oc3cc(O)cc(O)c3c2=O)cc1 [Compound 4, 2-(3-carboxypropyl)-7,5-dihydroxy-4′-methoxyisoflavone]
[1]; at 300 nM
  effect on DNA synthesis: stimulated DNA synthesis
[6]; at 300 nM
  stimulation of DNA synthesis: 50%
[2]
  effect on DNA synthesis / growth: stimulated the DNA synthesis
[3]
  effect on DNA synthesis: stimulated DNA synthesis
[5]; concentration not given
  stimulation of DNA synthesis: 273%
[7]
  effect on DNA synthesis: had no effect

## COc1ccc(-c2c(CCCC(=O)NCCCCCCNC(=O)OC(C)(C)C)oc3cc(O)cc(O)c3c2=O)cc1 [Compound 7, 2-[3-carboxy-(6-tert-butoxycarbonylamino)-hexylamino-propyl]-7,5-dihydroxy-4′-methoxyisoflavone]
[1]; Homo sapiens, at 30 nM
  inhibition at 0.03 µM: 10%
[1]; Homo sapiens, at 300 nM
  inhibition at 0.3 µM: 50%
[1]; compound at 0.3 μM
  DNA synthesis, ratio experimental/control (E/C): 0.41 ± 0.27
[6]; Homo sapiens, at 300 nM, read-out: inhibition of cell growth
  inhibition at 0.3 µM: 40%
[2]
  effect on DNA synthesis / growth: inhibited significantly DNA synthesis
[2]; compound at 3 μM
  DNA synthesis, ratio experimental/control (E/C): 0.22 ± 0.15
[3]; Homo sapiens, at 3.3 μM
  inhibition at 3.3 µM: 26%
[3]; compound at 3 μM
  DNA synthesis, ratio experimental/control (E/C): 0.74 ± 0.05
[4]; Homo sapiens, at 3 μM, read-out: inhibition of DNA synthesis / growth
  inhibition at 3 µM: 35%
[4]; compound at 3 μM
  DNA synthesis, ratio experimental/control (E/C): 0.64 ± 0.16
MLS ovarian cancer cells; compound at 3 μM
  DNA synthesis, ratio experimental/control (E/C): 0.05 ± 0.23
[5]; at 3 μM
  inhibition at 3 µM: 40 to 45%
[5]; compound at 3 μM
  DNA synthesis, ratio experimental/control (E/C): 0.55 ± 0.03

## O=C(O)COc1ccc2c(=O)c(-c3ccc(O)cc3)coc2c1 [Compound 6, 7-(O)-Carboxymethyl daidzein, reference compound]
[1]; at 300 nM
  effect on DNA synthesis: stimulated DNA synthesis
[3]
  effect on DNA synthesis: stimulated DNA synthesis
[7]
  effect on DNA synthesis: stimulated DNA synthesis

## C[C@]12CC[C@@H]3c4ccc(O)cc4C[C@@H](CCCCCCCCC[S+]([O-])CCCC(F)(F)C(F)(F)F)[C@H]3[C@@H]1CC[C@@H]2O (stereo partly shown) [ICI 182780, reference compound]
[2]; ICI 182780 1.1 μM alone
  DNA synthesis, ratio experimental/control (E/C): 0.63 ± 0.08
[2]; ICI 182780 (1.1 μM) + E2 30 nM
  DNA synthesis, ratio experimental/control (E/C): 0.63 ± 0.08
[2]; [8]
  DNA synthesis, ratio experimental/control (E/C): 0.92 ± 0.18
[2]; [9]
  DNA synthesis (% of control): 63%
[2]; estradiol 300 nM + 1.1 μM ICI 182780
  DNA synthesis (% of control): 92%
MLS ovarian cancer cells; ICI 182780 1.1 μM alone
  DNA synthesis, ratio experimental/control (E/C): 0.52 ± 0.12
MLS ovarian cancer cells; ICI 182780 (1.1 μM) + E2 30 nM
  DNA synthesis, ratio experimental/control (E/C): 0.53 ± 0.11
MLS ovarian cancer cells; [8]
  DNA synthesis, ratio experimental/control (E/C): 0.95 ± 0.08
MLS ovarian cancer cells; [9]
  DNA synthesis (% of control): 53%
MLS ovarian cancer cells; estradiol 0.3 μM + 1.1 μM ICI 182780
  DNA synthesis (% of control): 95%

## O=C(O)CCCc1oc2cc(O)cc(O)c2c(=O)c1-c1ccc(O)cc1 [Compound 5, 2-(3-Carboxypropyl)-5,7,4′-trihydroxyisoflavone]
[1]; at 300 nM
  effect on DNA synthesis: stimulated DNA synthesis
[2]
  effect on DNA synthesis / growth: significantly stimulated [^3H]-thymidine incorporation into DNA

## N.N.O=C([O-])C1(C(=O)[O-])CCC1.[Pt+2] [carboplatin, reference compound]
[4]; at 3 μM
  inhibition of DNA synthesis / growth: 57%

## O=c1c(-c2ccc(O)cc2)coc2cc(O)cc(O)c12 [Compound 2, Genistein, reference compound]
[1]; at 3 μM
  effect on DNA synthesis: stimulated DNA synthesis significantly
[2]; 30 to 300 nM
  effect on [3H]-thymidine incorporation into DNA: significantly stimulated [^3H]-thymidine incorporation into DNA
[4]; Homo sapiens
  inhibition at 25 µM: 30 to 40%
ERβ compared to ERα
  sensitivity for activating transcription via ERβ compared to ERα: 100 fold

## COC(=O)C[C@H](NC(=O)[C@H](C)NC(=O)[C@@H](NC(=O)OCc1ccccc1)C(C)C)C(=O)CF [Z-VADFK, Z-VAD-FMK Me ester, reference compound] (Cbz-Val-Ala-Asp(OMe)-CH2F)
[2]; Z-VADFK 25 μM alone
  DNA synthesis, ratio experimental/control (E/C): 1.11 ± 0.08
[2]; [10]
  effect on DNA synthesis: had no effect on DNA synthesis
MLS ovarian cancer cells; Z-VADFK 25 μM alone
  DNA synthesis, ratio experimental/control (E/C): 1.06 ± 0.1
MLS ovarian cancer cells; [10]
  effect on DNA synthesis: had no effect on DNA synthesis

## COc1cccc2c1C(=O)c1c(O)c3c(c(O)c1C2=O)C[C@@](O)(C(C)=O)C[C@@H]3O[C@H]1C[C@H](N)[C@H](O)[C@H](C)O1 [daunomycin, reference compound]
MLS ovarian xenografts
  reduction in mean body weight: 15%
MLS ovarian xenografts; 8-10 mice/group
  deaths caused: 2 mice
[5]; at 3 μM
  inhibition at 3 µM: 75%
